Tests used:
[1] = system: Peripheral blood lymphocytes; assay: Proliferation of peripheral blood lymphocytes stimulated in vitro with anti-CD3 antibody; type: in vivo, human
Experimental: Nine subjects (3/group) were orally administered 0.2 mg, 1.0 mg or 5.0 mg of OKT3 daily for 5 days and immune parameters measured on days 5, 10 and 30 days (FIG. 12). Six subjects (3/group) received 7.5 mg of beta glucosylceramide in combination with 0.2 mg or 1.0 mg of OKT3 and 3 subjects received GC alone. All subjects were treated with 20 mg of Omeprazole (a proton pump inhibitor) during the 5 days of dosing. Dosing occurred in the morning before breakfast at the study site following a 8 hours fast. PBMCs were isolated from blood samples using Ficol Hypaque solution. To measure proliferation, 2×10^5 cells per well were cultured in triplicate in RPMI 1640 medium with 5% FBS (Biological Industries, Israel), 100 units/ml penicillin, 100 µg/ml streptomycin, 1% Glutamine, 1% non essential […], 1% sodium pyruvate and β-mercapto-ethanol (Biological Industries, Israel). Cells were stimulated with pre-coated antibodies (in 200 μl PBS/well):μg/well of anti OKT-3 mAb (Ortho Biotech Inc, New Jersey, USA) or 5 μg/ml soluble anti-CD3 mAb (eBioscience, CA, USA) or 2.5 μg/ml anti-CD28 mAb (R&D systems, MN, USA). One set of the above wells were added nothing while 10 μg of GC was added to a similar set for 72 h in culture at 37° C. with 5% CO2. Supernatants were collected for IL-13, IL-17 and IFN-γ. Enzyme-linked immunosorbent assays for these cytokines were performed according to the manufacturer's protocol (R&D Systems, Minneapolis, Minn.). For TGF-β, 2×10^5 cells per well were cultured in serum free media (Biotarget, Biological Industries, Israel). After collecting the supernatants, 1 µCi [^3H]thymidine (Amersham Biosciences, UK) was added to each well, and cells were harvested 18 h later. Proliferation was measured by scintillation counting. Unlike what has been reported for treatment with IV anti-CD3 (which is also given at a dose of 5 mg per day for five days), no decrease in the CD3+ lymphocyte counts or modulation of CD3 from the T cell surface was observed. […] An identical pattern was observed when results were calculated as stimulation indices.

[2] = system: T cells; assay: FACS of activation and regulatory markers on T cells; type: in vivo, human
Experimental: Frozen PBMCs were used for sorting different cell populations, surface staining, and proliferation assays, and cytokine measurements. Cell sorting was performed by thawing […] PBMCs at room temperature (RT) and washing themed twice in medium at RT in 50-ml tubes in a 10-ml volume at 1,400 rpm. Cells were suspended to 20×10^6/ml and stained with seven colors staining of cells using Fc block, Lin-FITC, CD11c-APC, CD123-PE, CD3-Amcyan, CD4-Alexa700, CD25-PB, and 7-AAD was performed. Compensation controls, including an unstained control, were prepared. All samples were washed with medium and filtered into 15-ml tubes with 2 ml volume each to a total volume of 2 ml. CD4+ effector T cells, CD4+ regulatory T cells, myeloid DCs, and plasmacytoid DCs were sorted. Tubes were washed to get retrieve all sticky cells and spin them at 1,400 rpm. All cell populations were put in 350 μl of RLT 350 ul (lysis buffer), and transferred to eppendorff microtubes, and froze at −70° C. RNA was prepared using Qiagen micro kits (Valencia, Calif., USA) and cDNA was prepared using Applied Biosystems kits (Foster City, Calif., USA). We performed real-time PCR (RT-PCR) for different genes on in regulatory T cells, effector T cells, and DCs was performed.
For surface staining, one tube of frozen PBMCs was thawed at room temperature (RT) and washed twice in medium at RT in 50-ml tubes (10-ml volume) at 1,400 rpm. Cells were re-suspended cells at 8-10×10^6 cells/ml and 100 μl was aliquoted into each of 100 ul in 11 wells. For LAP+ cells (two wells), controls wells were preincubated with rLAP for 20 mins, and seven-colors staining of cells using CD3-Amcyan, CD4-Alexa700, CD8-APC, CD25-PB, and LAP-PE for 40 mins was preformed for 40 minutes. Cells were washed and stained with Annexin FITC and 7-AAD in Annexing binding buffer for 15 minutes. Cells were washed and analyzed immediately in Annexin Binding Buffer.
For Foxp3 surface staining (two wells), surface six-colors staining of cells using CD3-Amcyan, CD4-Alexa700, CD8-APC, and CD25-PB were performed for 30 minutes. Intracellular staining for IC/Foxp3-PE from eBiosciences was followed. For all other surface markers (7wellsseven wells), seven—color staining of cells was performed, using CD3-Amcyan, CD4-Alexa700, CD8-APC, CD25-PB, and Annexin FITC, 7-AAD, and IC/CD62L/CD69/CD45RO/CD127/CD28/HLA-DR-PE was performed. Cells were then washed Wash twice and Fix fixed the cells with 0.1% paraformaldehyde. Compensation controls, including an unstained control, were prepared. (Lin-FITC, CD11c-APC, CD123-PE, and CD3-Amcyan were tested in 1 μl/100 μl; CD4-Alexa700, CD25-PB, and 7-AAD were tested in 0.5 ul/100 μl; and LAP-PE, and Annexin-FITC were tested in 3 ul/100 μl).
For surface staining, freshly isolated PBMCs were suspended at 8-10×10^6 cells/ml. Surface two to three colors staining of cells were done with the following surface antibodies: CD4-FITC/CD25-PE, CD8− FITC/CD25-PE, CD3-APC/CD69-PE, CD11c-APC/Lin-FITC/CD86-PE, CD11c-APC/Lin-FITC/CD83-PE, CD11c-APC/Lin-FITC/HLAdr-PE. For LAP staining cells were preincubated with rLAP/control antibody for 20 mins, and stained with CD4-FITC and CD25-PE or CD8-FITC. […]
The inventors next investigated activation of markers and markers associated with regulation on T cells following oral OKT3 treatment. Regulatory T cells were measured by CD25hi, and effector cells were measured by CD25int/lo markers. […]

OKT3: murine monoclonal anti-CD3 antibody (Orthoclone OKT-3, Ortho Biotech)
subjects with increase in proliferation that peaked at day five ([1]; 0.2 mg oral): one subject
subjects with increase in proliferation that peaked at day five ([1]; 1.0 mg oral daily for 5 days, three subjects): all three subjects
subjects with increase in proliferation that peaked at day five ([1]; 5 mg oral): two subjects
subjects with similar pattern (increase) for CD8+CD25+ T cells ([2]; 0.2 mg oral, not shown): two subjects
CD4+CD25+ and CD8+CD25+ T cells ([2]; 1.0 mg fed group): increase
CD25hi Foxp3+ cells and CD25hi CTLA4 cells ([2]; 1.0 mg oral): increase
expression of TGF-β on CD25int/lo T cells ([2]; 1.0 mg oral): increase
subjects with similar pattern (increase) for CD8+CD25+ T cells ([2]; 1.0 or 5.0 mg oral): all six subjects
